US10752647B2, “N-phosphonoxymethyl prodrugs of hydroxyalkyl thiadiazole derivatives” (DAIICHI SANKYO COMPANY, LIMITED, priority 2017, dated 2020)
Where two headings read alike, the source gives them in different places.

Key:
[1] = Solubility in Japanese Pharmacopeia First Fluid (JP1) and Second Fluid (JP2); format: physicochemical; conditions: thermodynamic from solid, room temperature
Experimental: Method of Testing Solubility in Water and Neutral Buffer A 10 mmol/L solution of the test compound was prepared in DMSO and dispensed 100 μL of 10 mmol/L DMSO stock solutions into labeled glass tubes in duplicate, one for Japanese Pharmacopeia First Fluid (JP1) and second for Japanese Pharmacopeia Second Fluid (JP2). After evaporation of DMSO from each tube, 500 μL of JP1 and JP2 fluid were added in each tube, respectively. These tubes were sonicated for 1 minute and placed on shaker for 30 minutes with an interval of 30 seconds at every 5 minute. Tubes were placed in dark at room temperature for 1 hour and solution was filtered through membrane filter. The filtrate was diluted 2-fold and 10-fold. The resulting test solutions was analyzed and quantified against the standards using UPLC (standard preparation-10 mmol/L solution in DMSO is serially diluted with 50% aqueous acetonitrile solution to prepare 2 solutions; 100 μmol/L standard solution and 5 μmol/L standard solutions).

[2] = Conversion efficiency / PK profile after IV dose in rats (Compounds No. 1 and No. 2); format: in vivo; conditions: 15.3 mg/kg; Rat, plasma, prodrug IV 15.300 mg/kg, analyte prodrug; read-out: Compound No. 1 AUCinf
Experimental: Method of Testing Conversion Efficiency Determination of conversion efficiency of Compound No. 1 and Compound No. 2 was conducted in rodents (mice and rats) and non-rodents (monkeys and dogs). Animals were divided in two groups with two animals in each group. One group received an intravenous (IV) dose of prodrug and the other group received an IV dose of parent compound. The dose of prodrug was taken as molar equivalent dose of parent compound. Serial blood sampling was carried out at 0.083, 0.33, 1, 2, 4, 8 and 24 h post IV dose from both the animal groups. Blood samples were centrifuged to harvest plasma. Plasma samples were stored at −80° C. until analysis. Plasma samples of prodrug administered animals were simultaneously analyzed for both analytes (prodrug and parent compound) using LC-MS/MS. Area under the curve (AUC) of plasma concentrations versus time profiles were calculated in WinNonlin software and percentage conversion efficiency was determined using the formula: Percentage conversion efficiency=(AUCiv of parent compound (from prodrug administered samples)×100/(AUCiv of parent compound (from parent compound administered samples). PK profile of Compounds No. 1 and No. 2 in rats, dogs and monkeys are depicted in Table 5 and 6, respectively (also shown in FIGS. 1 and 2).

MRSA 562 = assay: Mouse lung infection model by MRSA 562 (neutropenic Swiss mice); format: in vivo, Staphylococcus aureus
Experimental: a) Method for Testing Therapeutic Effect of Compounds Using Mouse Lung Infection Model by MRSA 562
Mice were rendered neutropenic with two intra-peritoneal injections (IP) of cyclophosphamide on day −4 and day −1 prior to infection at the dose rate of 150 mg and 100 mg per kg body weight. Overnight grown MRSA 562 was diluted 1:10 in fresh Brain Heart Infusion broth and mixed 1:1 with 5% hog mucin. The bacterial suspension (3.16×10^6/mouce/50 μL) was then inoculated to each pre-anaesthetized mice (xylazine 5 mg/kg and ketamine 100 mg/kg mixture) into the nares of Swiss mice (4 to 6-week-old, Vivo Biotech Limited, Hyderabad, India), n=5 mice per group). The test compound was administered to the mice once, twice and four times at an interval of 24, 12 and 6 hr, respectively. The number of bacteria in the lungs was determined in the non-treated group immediately before initial administration of the test compound (pre-control) and in the non-treated group (post-control) and the test compound-administered group on the next day of administration of the test compound and infection. A change in the number of bacteria in the lungs was used as an index of therapeutic effect.

MRSA 02541 [3] = assay: Neutropenic mouse thigh infection model, MRSA 02541; format: in vivo, Staphylococcus aureus
Experimental: (§1) (b) Method for Testing Therapeutic Effect of Compounds Against MRSA 02541 and VRE IV258 21076 Using Neutropenic Mouse Thigh Infection Model
(§2) Swiss Webster mice of 4 to 6-week-old were used for this experiments (Vivo Biotech Limited, Hyderabad, India, n=5 mice per group). Mice were rendered neutropenic as described above. Overnight grown culture of MRSA 02541 on Mueller-Hinton broth (MHB) was adjusted to 0.5 Mac Farland. The suspension was then diluted 1:100 in fresh MHB and 100 μl was injected intra-muscularly in the right thigh muscles of the mice (n=5/group). In case of VRE IV 258-21076 culture was mixed with 10% hog mucin in 1:1 proportion. The bacterial inocula were confirmed by quantitative culture analyses and found to be 3×10^6 CFU for MRSA and 2×10^6 for VRE IV258-21076 per mL. Treatment started 2 h post infection. The test compound was administered to the mice one to eight times at an interval of 3 to 24 hr. The number of bacteria in the thigh muscle was counted for the non-treated group immediately before initial administration of the test compound (pre-control), for the non-treated group (post-control) and for the test compound-administered group on the next day of administration of the test compound and infection. A change in the number of bacteria in the thigh was used as an index of therapeutic effect.

VRE IV258 21076 = assay: Neutropenic mouse thigh infection model, VRE IV258 21076; format: in vivo, Enterococcus
Experimental: as §1, §2

MRSA 02541 [4] = assay: Neutropenic Sprague Dawley rat thigh infection model, MRSA 02541; format: in vivo, Staphylococcus aureus; conditions: for log10 kill (number of bacteria in the thigh): 25 mg/kg, IV qid
Experimental: c) Method for Testing Therapeutic Effect of Compounds Against MRSA 02541 Using Neutropenic Sprague Dawley Rat Thigh Infection Model
Sprague Dawley rats of 4 to 6-week-old were used for this experiments (Vivo Biotech Limited, Hyderabad, India, n=4 rats per group). Rats were rendered neutropenic by intraperitoneal injection of cyclophosphamide. Overnight grown culture of MRSA 02541 in MHB was adjusted to 0.5 Mac Farland. The suspension was then diluted 1:10 in fresh MHB and 200 μl was injected intra-muscularly in the right thigh muscles of the rat. The bacterial inocula were confirmed by quantitative culture analyses and found to be 6×10^6 CFU per rat thigh muscle. Treatment started 2 h post infection. The test compound was administered to the rat four times at an interval of 6 hr. The number of bacteria in the thigh muscle was counted for the non-treated group immediately before initial administration of the test compound (2 h pre-control), for the non-treated group (26 h post-control) and for the test compound-administered group on the next day of administration of the test compound and infection. A change in the number of bacteria in the thigh was used as an index of therapeutic effect.

[5] = system: Clostridium difficile 2009155, a NAP1/027 strain; assay: Hamster CDI model; format: in vivo; conditions: 0.3 mg/kg/day for 5 days
Experimental: d) Method for Testing Therapeutic Effect of Compounds in Hamster CDI Model
The in vivo efficacy of Compound No. 1 was evaluated in a hamster CDI model caused by Clostridium difficile 2009155, a NAP1/027 strain. The Syrian hamsters (7-9 weeks old, National Centre for Laboratory Animal Sciences, National Institute Nutrition, Hyderabad, India.) were acclimatized at least 7 days prior the experiment. Hamsters primed with a single subcutaneous injection of clindamycin (30 mg/kg) 1 day prior to infection. Hamsters were infected by oral gavage with 1 mL of spore suspension (2-3×10^5) prepared in PBS. The test compounds were prepared using the 0.25 w/v % Methyl Cellulose Solution for oral administration and 10% HP ß-CD for SC administration and treatment was started 6 h post infection at an interval of 24 h for 5 days. Hamsters were administered a dose of 0.03-0.3 mg/kg/day for 5 days. The death and survival time of the hamsters treated with test compound administered group and non-treated group (vehicle-control) were recorded once daily for 35 days and were compared. A change in the survival time was used as an index of therapeutic effect.

[6] = Solubility of parent compounds and prodrugs in phosphate buffer; format: physicochemical; conditions: aqueous buffer, thermodynamic from solid; prodrug, phosphate buffer adjusted with NaOH, 25° C., more than 4 weeks, pH 7.0
Experimental: Parent compounds: About 5 mg of parent compounds (biologically active forms of prodrugs) were added to 950 μL of phosphate buffer, and mixed vigorously for 1 hour at 25° C. Then, these samples were stored at 25° C. for more than 4 weeks and filtered to remove undissolved parent compounds. Next, these solutions were diluted with 50% aqueous acetonitrile solution. The resulting test solutions were assayed by HPLC. Prodrugs: About 30 mg of prodrugs were added to 120 μL of phosphate buffer, and mixed vigorously for 1 hour at 25° C. After shaking, pH of these solutions were adjusted at pH 7.0 by 1 mol/L NaOH solution. Then, the total volume were adjusted to 280 μL with purified water. Next, these solutions were stored at 25° C. for more than 4 weeks and filtered to remove undissolved compounds. These solutions were diluted with 50% aqueous acetonitrile solution. The resulting test solutions were assayed by HPLC.

[7] = pH 1.2, simulated gastric fluid, Japanese Pharmacopeia First Fluid (JP1), read-out: Solubility JP1
[8] = pH 6.8, aqueous buffer, Japanese Pharmacopeia Second Fluid (JP2), read-out: Solubility JP2

In the case of `CCc1c(Cl)nc(C(=O)N[C@@H]2CCN(c3nnc(C(C)(C)O)s3)C[C@@H]2OC)n1COP(=O)(O)O` [Compound No. 1, [4-Chloro-5-ethyl-2-({(3S,4R)-1-[5-(2-hydroxypropan-2-yl)-1,3,4-thiadiazol-2-yl]-3-methoxypiperidin-4-yl}carbamoyl)-1H-imidazol-1-yl]methyl dihydrogen phosphate], the solubility at 30 min [1, 7] was > 1280 µg/mL, the solubility at 30 min [1, 8] was > 1320 µg/mL and the AUC(0-inf) [2] was 270 ng·h/mL. For the same compound, the “log10 kill (number of bacteria in the lungs)” value (MRSA 562; 6.25 mg/kg/dose, SC q6h, compared to 1 hour pre-control) was 1.33 log10, the “log10 kill (number of bacteria in the lungs)” value (MRSA 562; 6.25 mg/kg/dose, SC q6h, compared to 25 hour post control) was 2.52 log10 and the “log10 kill (number of bacteria in the lungs)” value (MRSA 562; 12.5 mg/kg/dose, SC, q6h, compared to 1 hour pre-control) was 1.76 log10. For the same compound, the “log10 kill (number of bacteria in the lungs)” value (MRSA 562; 12.5 mg/kg/dose, SC, q6h, compared to 25 hour post control) was 2.95 log10, the “Therapeutic effect (change in the number of bacteria in the lungs)” value (MRSA 562; mouse lung infection, MRSA 562) was “exhibited the therapeutic effect” and the “Cidal potential (number of bacteria in the thigh)” value (MRSA 02541 [3]; 200 mg/kg/dose q24h, 100 mg/kg/dose q24h, and 50 mg/kg/dose q24h and their fractions irrespective of dosing schedule) was “cidal potential”. The “Therapeutic effect (change in the number of bacteria in the thigh)” value (MRSA 02541 [3]; neutropenic mouse thigh, MRSA 02541) was “exhibited the therapeutic effect”, the “Cidal potential (number of bacteria in the thigh)” value (VRE IV258 21076; fractionated doses 50 mg/kg/dose q12h, 25 mg/kg/dose q6h, 12.5 mg/kg/dose q3h) was “cidal potential” and the “Therapeutic effect (change in the number of bacteria in the thigh)” value (VRE IV258 21076; neutropenic mouse thigh, VRE IV258 21076) was “exhibited the therapeutic effect”. The “log10 kill (number of bacteria in the thigh)” value (MRSA 02541 [4]; compared to 2 hours pre-control) was 1 log10, the “log10 kill (number of bacteria in the thigh)” value (MRSA 02541 [4]; compared to 26 hours post control) was 2.99 log10 and the “Therapeutic effect (change in the number of bacteria in the thigh)” value (MRSA 02541 [4]; neutropenic rat thigh, MRSA 02541) was “exhibited the therapeutic effect”. The “Survival on day 35” value [5] was 100%.
For `CCc1nc(C(=O)N[C@@H]2CCN(c3nnc(C(C)(C)O)s3)C[C@@H]2OC)n(COP(=O)(O)O)c1Cl` [Compound No. 2, [5-Chloro-4-ethyl-2-({(3S,4R)-1-[5-(2-hydroxypropan-2-yl)-1,3,4-thiadiazol-2-yl]-3-methoxypiperidin-4-yl}carbamoyl)-1H-imidazol-1-yl]methyl dihydrogen phosphate], the solubility at 30 min [1, 7] was > 1120 µg/mL, the solubility at 30 min [1, 8] was > 1100 µg/mL and the “Survival on day 35” value [5] was 100%.
For `CCc1c(Cl)nc(C(=O)N[C@@H]2CCN(c3nnc([C@](C)(O)CO)s3)C[C@@H]2OC)n1COP(=O)(O)O` [Compound No. 3, (4-Chloro-2-{[(3S,4R)-1-{5-[(2R)-1,2-dihydroxypropan-2-yl]-1,3,4-thiadiazol-2-yl}-3-methoxypiperidin-4-yl]carbamoyl}-5-ethyl-1H-imidazol-1-yl)methyl dihydrogen phosphate], the solubility at 30 min [1, 7] was > 1350 µg/mL, the solubility at 30 min [1, 8] was > 1320 µg/mL and the solubility [6] was 107000 µg/mL.
In the case of `CCc1nc(C(=O)N[C@@H]2CCN(c3nnc([C@](C)(O)CO)s3)C[C@@H]2OC)n(COP(=O)(O)O)c1Cl` [Compound No. 4, (5-Chloro-2-{[(3S,4R)-1-{5-[(2R)-1,2-dihydroxypropan-2-yl]-1,3,4-thiadiazol-2-yl}-3-methoxypiperidin-4-yl]carbamoyl}-4-ethyl-1H-imidazol-1-yl)methyl dihydrogen phosphate], the solubility at 30 min [1, 7] was > 1280 µg/mL, the solubility at 30 min [1, 8] was > 1510 µg/mL and the solubility [6] was 102000 µg/mL.
